Measurements taken from patent publication US10166271B2, “Methods for promoting hair growth” (THE REGENTS OF THE UNIVERSITY OF CALIFORNIA, priority 2006, dated 2019).
“And” between values parts separate entries of the source, which are not always exact repeats. Identical values can stand only once.

Experiments:
[1] = similar doses; Rivier et al. 2002; cited from earlier work
CRF-OE mice [2] = assay: Cyclic CRF antagonists, hair growth in adult alopecic CRF-OE mice (Example 10); type: in vivo; settings: at least four weeks after the final administration
Excerpt: Although mice are particularly described, one skilled in the art will appreciate that other laboratory animals and human subjects can be used, and doses adjusted accordingly (for example based on the weight of the subject, or the area to which the peptide is to be applied). Similarly although particular modes of administration are described, one will appreciate that variations can be made (such as those disclosed herein and those known in the art).
Any method of administration can be used, including injection, transdermal/topical delivery, or combinations thereof.
In one example, therapeutic peptides are administered via injection. For example, mice can be injected subcutaneously or intraperitoneally with at least 0.05 μg, at least 0.5 μg, at least 5 μg, at least 50 μg, or at least 500 μg of one or more therapeutic peptides (for example 0.5-50 μg peptide, 0.5-10 μg peptide, or 5 μg peptide). The peptide can be administered in 0.1 ml sterile saline (or 5% mannitol) once per day for at least 5 consecutive days, such as at least 10 days, at least 30 days, or at least 60 days. […] As a negative control, CRF-OE mice receive saline alone (such as 10-100 μl) or 5 μg astressin 2B in 0.1 ml saline.
In another example, therapeutic peptides are administered topically or transdermally. […]

CRF-OE mice [3] = assay: Subcutaneous implanted mini-pump in CRF-OE mice, hair growth; type: in vivo; settings: 10 μg/mouse/day for 7 days, implanted mini-pump sc; CRF-OE male and female mice 5-7 months old
Excerpt: Eight (8) out of 9 (89%) female mice responded to injected (sc) astressin B with increased pigmentation and hair growth. The remaining […] female mice were observed qualitatively. Similarly, 4 out of 4 (100%) of the male mice responded to astressin B with increased pigmentation and hair growth. In contrast, none of the astressin 2B-injected mice (0%) grew significant amounts of hair.

CRF1/CRF2 receptor = CRF1/CRF2 receptor antagonist; stated without test; cited from earlier work
CRF-OE mice [4] = assay: Repeat sc experiment in female CRF-OE mice (4.5 months old): skin pigment and hair growth scores; type: in vivo; design: key to Skin pigmentation (Pg) score: 0 = bright pink skin, 10 = black pigmentation of entire region; key to Ventral Abdomen Hair Growth Score (VAb) / Back Hair Growth Score (BK): 0 = no change in hair, 10 = full hair growth in test area; settings: sc 5 μg/mouse x 5 days
Procedure: Hair growth in CRF-OE mice was assessed using the hair growth scale developed by Vegesna et al. […], 2002) modified to account for phenotypic differences between CRF-OE mice. Scores were made visually as well as using photographs of each mouse at a weekly interval. The degree of alopecia varied between individual CRF-OE mice; thus, the percent difference between the amount of hair present in the test area (described below) before and 4 weeks after treatment was converted to a score of 0-10. A zero score corresponded to a no change in the amount of hair in the test area and a score of 10 corresponded to full hair growth in the entire test area. The scale for monitoring hair growth in CRF-OE mice is more particularly described in Table 2.
Pigmentation of the skin (also referred to as skin color) in the test region was also measured because, in C57BL/6 mice, the skin darkens at the onset of hair growth. A pigmentation score from 0-10 was given to each mouse with a score of 0 corresponding to bright pink skin color/pigment in the entire test region, a score of 1-5 corresponding to increasing intensity of a pale greyish color/pigment of skin in the test region, a score of 6-9 corresponding to increasing but non-confluent darker color/pigment of skin in the test region, and a score of 10 corresponding to black pigmentation of the entire test region. Pigmentation was measured one week after the fifth and final injection because changes (if any) in pigmentation are substantially complete by that time.
Experiments were repeated in female CRF-OE mice (4.5 months old) to confirm the results. Mice were injected with astressin B (5 μg/mouse, 10 mice) or saline (5 mice) for 5 days. Skin pigment and hair growth scores were given as described before. Five astressin B-treated and five saline injected mice were sacrificed for skin tissue collection at seven days post last injection. Additional mice (5) injected with astressin B were sacrificed on day 14. Five littermate wild type (WT) mice were used as normal control. Adrenal gland and abdominal fat weights were also checked at sacrifice of each mouse.
CRF-OE mice (approximately 4 months old) with fully developed alopecia on their backs were injected intraperitoneally (ip) with equal volumes (0.1 ml) of either saline or astressin B (5 μg/mouse/day) for 5 consecutive days. Skin pigment score and hair growth (on the back) score were determined as described in Example 1. In addition, because adult CRF-OE mice also lose ventral abdomen hair, a ventral abdomen (Vab) hair growth score was determined. The area considered for scoring ventral abdomen hair growth was delineated, in the front (anteriorly), by a horizontal line across the tip of the xifoid process (distal sternum), in the rear (posteriorly), by a horizontal line joining the back of the thighs along the anus, and, laterally, by a straight line along the lateral side of the ventral abdomen on left and right sides.

[5] = Before (Week 0), individual mice and Ave., listed as AB
[6] = Before (Week 0), individual mice and Ave., listed as AB, mean
[7] = Week 1, individual mice and Ave., listed as AB
[8] = Week 1, individual mice and Ave., listed as AB, mean

Substance	Duration of delay of gastric emptying [1]	Hair in the test area (CRF-OE mice [2])	Hair growth for 1 month post treatment (CRF-OE mice [3])	Duration of action (long acting) (CRF1/CRF2 receptor) [h]	Skin pigmentation (Pg) score (CRF-OE mice [4]; Before (Week 0), individual mice and Ave.)	Back Hair Growth Score (BK) (CRF-OE mice [4]; [5])	Ventral Abdomen Hair Growth Score (VAb) (CRF-OE mice [4]; [5])	Back Hair Growth Score (BK) (CRF-OE mice [4]; [6])	Ventral Abdomen Hair Growth Score (VAb) (CRF-OE mice [4]; [6])	Skin pigmentation (Pg) score (CRF-OE mice [4]; Before (Week 0), individual mice and Ave., mean)	Back Hair Growth Score (BK) (CRF-OE mice [4]; [7])	Skin pigmentation (Pg) score (CRF-OE mice [4]; [7])	Ventral Abdomen Hair Growth Score (VAb) (CRF-OE mice [4]; [7])	Back Hair Growth Score (BK) (CRF-OE mice [4]; [8])	Skin pigmentation (Pg) score (CRF-OE mice [4]; [8])	Ventral Abdomen Hair Growth Score (VAb) (CRF-OE mice [4]; [8])	Ventral Abdomen Hair Growth Score (VAb) (CRF-OE mice [4]; Week 2, 14 days follow-up group, individual mice and Ave.)	Back Hair Growth Score (BK) (CRF-OE mice [4]; Week 2, 14 days follow-up group, individual mice and Ave., listed as AB)	Back Hair Growth Score (BK) (CRF-OE mice [4]; Week 2, 14 days follow-up group, individual mice and Ave., listed as AB, mean)	Ventral Abdomen Hair Growth Score (VAb) (CRF-OE mice [4]; Week 2, 14 days follow-up group, individual mice and Ave., mean)
cyclo(31-34)[DPhe11, His12, CαMeLeu13,39, Nle17, Glu31, Lys34]Ac-Sau(8-40) [Astressin 2B, reference compound]	over 6 hours	remain bald in the test area	no hair growth was observed																	
(cyclo 30-33)[DPhe12, Nle21,38, Cml27,40, Glu30, Lys33]Ac-h/rCRF9-41 [Astressin B]				≥ 24	0	0.5 (4×) and 1 (2×) and 0 (4×)	0.5 (4×) and 0.25 (6×)	0.7 and 0.1	0.35	0	10 (4×) and 9.5 (3×) and 7 and 9 and 8.5	10 (4×) and 9.5 (3×) and 7 and 9 and 8.5	0.5 (2×) and 0.25 (7×) and 0.75	9.5 and 9.1	9.5 and 9.1	0.35	0.5	5 and 9.5 and 8 (2×) and 10	8.1	0.5
